# Laboratory results published in PubChem BioAssay AID2060503 (Molecular Pharmacology Branch, DTP, NCI, 2025).
# Tested on: 817829-284-R-J1-PDC complex spheroids, viability
# Test: Anticancer human tumor 817829-284-R-J1-PDC patient-derived colon adenocarcinoma cell line growth inhibition [GQUAD]
# Details: for IC50: curve of first compound; for viability, T/C: stronger effect = lower value
# Summary of the method: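 Tumor cells were grown as complex spheroids with HUVEC endothelial cells and mesenchymal stem cells as stroma. G-quadruplex stabilizers were combined with targeted agents over half-log dilutions from near the clinical Cmax, or from 10 microM.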
# [1] = second compound 0.0316 µM, first compound 0.0316 µM
# [2] = second compound 0.0316 µM, first compound 0.1 µM
# [3] = second compound 0.0316 µM, first compound 0.316 µM
# [4] = second compound 0.0316 µM, first compound 1 µM
# [5] = second compound 0.0316 µM, first compound 3.16 µM
# [6] = second compound 0.0316 µM, first compound 10 µM
# [7] = second compound 0.1 µM, first compound 0.0316 µM
# [8] = second compound 0.1 µM, first compound 0.1 µM
# [9] = second compound 0.1 µM, first compound 0.316 µM
# [10] = second compound 0.1 µM, first compound 1 µM
# [11] = second compound 0.1 µM, first compound 3.16 µM
# [12] = second compound 0.1 µM, first compound 10 µM
# [13] = second compound 0.316 µM, first compound 0.0316 µM
# [14] = second compound 0.316 µM, first compound 0.1 µM
# [15] = second compound 0.316 µM, first compound 0.316 µM
# [16] = second compound 0.316 µM, first compound 1 µM
# [17] = second compound 0.316 µM, first compound 3.16 µM
# [18] = second compound 0.316 µM, first compound 10 µM
# [19] = second compound 1 µM, first compound 0.0316 µM
# [20] = second compound 1 µM, first compound 0.1 µM
# [21] = second compound 1 µM, first compound 0.316 µM
# [22] = second compound 1 µM, first compound 1 µM
# [23] = second compound 1 µM, first compound 3.16 µM
# [24] = second compound 1 µM, first compound 10 µM
# [25] = second compound 3.16 µM, first compound 0.0316 µM
# [26] = second compound 3.16 µM, first compound 0.1 µM
# [27] = second compound 3.16 µM, first compound 0.316 µM
# [28] = second compound 3.16 µM, first compound 1 µM
# [29] = second compound 3.16 µM, first compound 3.16 µM
# [30] = second compound 3.16 µM, first compound 10 µM
# [31] = second compound 10 µM, first compound 0.0316 µM
# [32] = second compound 10 µM, first compound 0.1 µM
# [33] = second compound 10 µM, first compound 0.316 µM
# [34] = second compound 10 µM, first compound 1 µM
# [35] = second compound 10 µM, first compound 3.16 µM
# [36] = second compound 10 µM, first compound 10 µM
# [37] = second compound 0.0316 µM, first compound 0.000999 µM
# [38] = second compound 0.0316 µM, first compound 0.00316 µM
# [39] = second compound 0.0316 µM, first compound 0.00999 µM
# [40] = second compound 0.0316 µM, first compound 0.0999 µM
# [41] = second compound 0.1 µM, first compound 0.000999 µM
# [42] = second compound 0.1 µM, first compound 0.00316 µM
# [43] = second compound 0.1 µM, first compound 0.00999 µM
# [44] = second compound 0.1 µM, first compound 0.0999 µM
# [45] = second compound 0.316 µM, first compound 0.000999 µM
# [46] = second compound 0.316 µM, first compound 0.00316 µM
# [47] = second compound 0.316 µM, first compound 0.00999 µM
# [48] = second compound 0.316 µM, first compound 0.0999 µM
# [49] = second compound 1 µM, first compound 0.000999 µM
# [50] = second compound 1 µM, first compound 0.00316 µM
# [51] = second compound 1 µM, first compound 0.00999 µM
# [52] = second compound 1 µM, first compound 0.0999 µM
# [53] = second compound 3.16 µM, first compound 0.000999 µM
# [54] = second compound 3.16 µM, first compound 0.00316 µM
# [55] = second compound 3.16 µM, first compound 0.00999 µM
# [56] = second compound 3.16 µM, first compound 0.0999 µM
# [57] = second compound 10 µM, first compound 0.000999 µM
# [58] = second compound 10 µM, first compound 0.00316 µM
# [59] = second compound 10 µM, first compound 0.00999 µM
# [60] = second compound 10 µM, first compound 0.0999 µM
# 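Also: spheroids exposed to agents for 7 days before readout.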
# 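For viability, T/C in this document: percent viability relative to DMSO vehicle control taken as 100%.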
compound,measurement,setting,value
O=C(c1cc(Cc2n[nH]c(=O)c3ccccc23)ccc1F)N1CCN(C(=O)C2CC2)CC1 + Cc1cnc(CNC(=O)c2c(=O)c3ccc(N4CCCN(C)CC4)nc3n3c2sc2ccccc23)cn1,IC50,second compound 0.0316 µM,1080 nM
same,IC50,second compound 0.1 µM,< 31.6 nM
same,IC50,second compound 0.316 µM,< 31.6 nM
same,IC50,second compound 1 µM,< 31.6 nM
same,IC50,second compound 3.16 µM,< 31.6 nM
same,IC50,second compound 10 µM,< 31.6 nM
same,"viability, T/C",[1],78.9%
same,"viability, T/C",[2],65.2%
same,"viability, T/C",[3],58.5%
same,"viability, T/C",[4],51.6%
same,"viability, T/C",[5],44.2%
same,"viability, T/C",[6],35.6%
same,"viability, T/C",[7],30.9%
same,"viability, T/C",[8],33.5%
same,"viability, T/C",[9],32.9%
same,"viability, T/C",[10],32.1%
same,"viability, T/C",[11],33.8%
same,"viability, T/C",[12],29.9%
same,"viability, T/C",[13],24.3%
same,"viability, T/C",[14],24.5%
same,"viability, T/C",[15],25.1%
same,"viability, T/C",[16],23.7%
same,"viability, T/C",[17],26.4%
same,"viability, T/C",[18],27.4%
same,"viability, T/C",[19],18.6%
same,"viability, T/C",[20],23.9%
same,"viability, T/C",[21],20.3%
same,"viability, T/C",[22],22.8%
same,"viability, T/C",[23],23.1%
same,"viability, T/C",[24],23.4%
same,"viability, T/C",[25],18.1%
same,"viability, T/C",[26],21%
same,"viability, T/C",[27],21.3%
same,"viability, T/C",[28],19%
same,"viability, T/C",[29],20%
same,"viability, T/C",[30],21.4%
same,"viability, T/C",[31],0.17%
same,"viability, T/C",[32],0.18%
same,"viability, T/C",[33],0.22%
same,"viability, T/C",[34],0.2%
same,"viability, T/C",[35],0.22%
same,"viability, T/C",[36],0.21%
Cc1[nH]c2ccccc2c1CCNCc1ccc(/C=C/C(=O)NO)cc1 + Cc1cnc(CNC(=O)c2c(=O)c3ccc(N4CCCN(C)CC4)nc3n3c2sc2ccccc23)cn1,IC50,second compound 0.0316 µM,7.25 nM
same,IC50,second compound 0.1 µM,< 0.999 nM
same,IC50,second compound 0.316 µM,< 0.999 nM
same,IC50,second compound 1 µM,< 0.999 nM
same,IC50,second compound 3.16 µM,< 0.999 nM
same,IC50,second compound 10 µM,< 0.999 nM
same,"viability, T/C",[37],83.2%
same,"viability, T/C",[38],67.1%
same,"viability, T/C",[39],44.2%
same,"viability, T/C",[1],17.7%
same,"viability, T/C",[40],5.1%
same,"viability, T/C",[3],0.06%
same,"viability, T/C",[41],27.4%
same,"viability, T/C",[42],31.7%
same,"viability, T/C",[43],21.3%
same,"viability, T/C",[7],18.4%
same,"viability, T/C",[44],6.46%
same,"viability, T/C",[9],0.06%
same,"viability, T/C",[45],21.5%
same,"viability, T/C",[46],24.8%
same,"viability, T/C",[47],17.1%
same,"viability, T/C",[13],15.9%
same,"viability, T/C",[48],4.53%
same,"viability, T/C",[15],0.05%
same,"viability, T/C",[49],18.3%
same,"viability, T/C",[50],20.6%
same,"viability, T/C",[51],15.7%
same,"viability, T/C",[19],13.7%
same,"viability, T/C",[52],3.62%
same,"viability, T/C",[21],0.06%
same,"viability, T/C",[53],15.1%
same,"viability, T/C",[54],18.6%
same,"viability, T/C",[55],15.4%
same,"viability, T/C",[25],11.8%
same,"viability, T/C",[56],0.11%
same,"viability, T/C",[27],0.1%
same,"viability, T/C",[57],0.1%
same,"viability, T/C",[58],0.14%
same,"viability, T/C",[59],0.2%
same,"viability, T/C",[31],0.18%
same,"viability, T/C",[60],0.2%
same,"viability, T/C",[33],0.2%
Cc1[nH]c2ccccc2c1CCNCc1ccc(/C=C/C(=O)NO)cc1 + Cc1[nH]c2ccc(F)cc2c1-c1nc2c3cccnc3c3ncccc3c2[nH]1,IC50,second compound 0.0316 µM,54.5 nM
same,IC50,second compound 0.1 µM,53.6 nM
same,IC50,second compound 0.316 µM,55.2 nM
same,IC50,second compound 1 µM,51 nM
same,IC50,second compound 3.16 µM,20.2 nM
same,IC50,second compound 10 µM,< 0.999 nM
same,"viability, T/C",[37],89.7%
same,"viability, T/C",[38],102%
same,"viability, T/C",[39],121%
same,"viability, T/C",[1],91.4%
same,"viability, T/C",[40],4.1%
same,"viability, T/C",[3],0.13%
same,"viability, T/C",[41],110%
same,"viability, T/C",[42],108%
same,"viability, T/C",[43],125%
same,"viability, T/C",[7],89.8%
same,"viability, T/C",[44],3.87%
same,"viability, T/C",[9],0.11%
same,"viability, T/C",[45],99.5%
same,"viability, T/C",[46],119%
same,"viability, T/C",[47],121%
same,"viability, T/C",[13],92.7%
same,"viability, T/C",[48],4.91%
same,"viability, T/C",[15],0.1%
same,"viability, T/C",[49],101%
same,"viability, T/C",[50],112%
same,"viability, T/C",[51],117%
same,"viability, T/C",[19],82%
same,"viability, T/C",[52],5.56%
same,"viability, T/C",[21],0.1%
same,"viability, T/C",[53],71.3%
same,"viability, T/C",[54],99.3%
same,"viability, T/C",[55],65.2%
same,"viability, T/C",[25],38.8%
same,"viability, T/C",[56],3.35%
same,"viability, T/C",[27],0.16%
same,"viability, T/C",[57],41.8%
same,"viability, T/C",[58],56.7%
same,"viability, T/C",[59],40.3%
same,"viability, T/C",[31],28.5%
same,"viability, T/C",[60],2.12%
same,"viability, T/C",[33],0.24%
O=C(NO)c1cnc(N2CCN(S(=O)(=O)c3ccc4ccccc4c3)CC2)nc1 + CN(C)c1ccc(Nc2c3ccc(NC(=O)CCN4CCCC4)cc3nc3cc(NC(=O)CCN4CCCC4)ccc23)cc1,IC50,second compound 0.0316 µM,174 nM
same,IC50,second compound 0.1 µM,184 nM
same,IC50,second compound 0.316 µM,189 nM
same,IC50,second compound 1 µM,182 nM
same,IC50,second compound 3.16 µM,170 nM
same,IC50,second compound 10 µM,82.8 nM
same,"viability, T/C",[1],107%
same,"viability, T/C",[2],91.7%
same,"viability, T/C",[3],5.47%
same,"viability, T/C",[4],0.25%
same,"viability, T/C",[5],0.18%
same,"viability, T/C",[6],0.2%
same,"viability, T/C",[7],116%
same,"viability, T/C",[8],101%
same,"viability, T/C",[9],4.32%
same,"viability, T/C",[10],0.23%
same,"viability, T/C",[11],0.12%
same,"viability, T/C",[12],0.17%
same,"viability, T/C",[13],98.8%
same,"viability, T/C",[14],111%
same,"viability, T/C",[15],5.37%
same,"viability, T/C",[16],0.23%
same,"viability, T/C",[17],0.11%
same,"viability, T/C",[18],0.15%
same,"viability, T/C",[19],103%
same,"viability, T/C",[20],99.4%
same,"viability, T/C",[21],4.41%
same,"viability, T/C",[22],0.21%
same,"viability, T/C",[23],0.1%
same,"viability, T/C",[24],0.13%
same,"viability, T/C",[25],110%
same,"viability, T/C",[26],89.4%
same,"viability, T/C",[27],4.33%
same,"viability, T/C",[28],0.21%
same,"viability, T/C",[29],0.12%
same,"viability, T/C",[30],0.15%
same,"viability, T/C",[31],102%
same,"viability, T/C",[32],39.8%
same,"viability, T/C",[33],2.02%
same,"viability, T/C",[34],0.23%
same,"viability, T/C",[35],0.19%
same,"viability, T/C",[36],0.19%
